What all share (type): functional, cell-based
One test relates to A549. The test is described as follows: Cytotoxicity against human A549 cells after 24 hrs by MTT assay.
In another test the test system is DU-145. Nature of the test: Cytotoxicity against human DU145 cells after 24 hrs by MTT assay.
In the next test the test system is MCF7. The test is described as follows: Cytotoxicity against human MCF7 cells after 24 hrs by MTT assay.
The test system of a further test is HeLa. Nature of the test: Cytotoxicity against human HeLa cells after 24 hrs by MTT assay.
[1] abbreviates: Homo sapiens, A549, 24 h, read-out: IC50.
The mark [2] stands for this setting: Homo sapiens, DU-145, 24 h, read-out: IC50.
Setting [3] is: Homo sapiens, MCF7, 24 h, read-out: IC50.
Setting [4] is: Homo sapiens, HeLa, 24 h, read-out: IC50.

The text below walks through data of ChEMBL document CHEMBL2434848, “Synthesis and biological evaluation of novel alkyl amide functionalized trifluoromethyl substituted pyrazolo[3,4-b]pyridine derivatives as potential anticancer agents” (Bioorg Med Chem Lett, 2013).

`Nc1nn(CC(=O)N2CCN(CCO)CC2)c2nc(-c3ccccc3)cc(C(F)(F)F)c12`: the IC50 is 14.9 µM in the test with A549 (setting [1]), 3.2 µM in the test on DU-145 (setting [2]), 15.6 µM with MCF7 (setting [3]) and 2.9 µM in the test with HeLa (setting [4]).

As for `CN1CCN(C(=O)Cn2nc(N)c3c(C(F)(F)F)cc(-c4ccccc4)nc32)CC1`, the IC50 came to 18.4 µM in the test on A549 (setting [1]), 18.1 µM in the test with DU-145 (setting [2]), 16.6 µM with MCF7 (setting [3]) and 17.7 µM with HeLa (setting [4]).

For `NNC(=O)Cn1nc(N)c2c(C(F)(F)F)cc(-c3ccccc3)nc21`, the IC50 was 53.6 µM with A549 (setting [1]), 52.4 µM with DU-145 (setting [2]), 35.4 µM with MCF7 (setting [3]) and 48.4 µM in the test with HeLa (setting [4]).

On to `Nc1nn(CC(=O)NCc2ccccc2)c2nc(-c3ccccc3)cc(C(F)(F)F)c12`, for which the IC50 with A549 (setting [1]) was 17.3 µM; in the test on DU-145 (setting [2]), 15.6 µM; with MCF7 (setting [3]), 16.3 µM; with HeLa (setting [4]), 17.1 µM.

Regarding `CC(NC(=O)Cn1nc(N)c2c(C(F)(F)F)cc(-c3ccccc3)nc21)C(=O)O` (stereo not given), the IC50 with A549 (setting [1]) was determined as 25.6 µM; in the test with DU-145 (setting [2]), 22.4 µM; in the test on MCF7 (setting [3]), 19.9 µM; with HeLa (setting [4]) it was 20.1 µM.

With `Nc1nn(CC(=O)N2CCN(c3ccccc3)CC2)c2nc(-c3ccccc3)cc(C(F)(F)F)c12`, the IC50 in the test on A549 (setting [1]) amounted to 20.7 µM; in the test on DU-145 (setting [2]) it was 18.9 µM; with MCF7 (setting [3]) it was 19.7 µM; in the test with HeLa (setting [4]), 19.8 µM.

On to `Nc1nn(CC(=O)N2CCCC2)c2nc(-c3ccccc3)cc(C(F)(F)F)c12`, for which the IC50 stood at 18.7 µM with A549 (setting [1]), 12.2 µM with DU-145 (setting [2]), 15.9 µM in the test on MCF7 (setting [3]) and 16.1 µM with HeLa (setting [4]).

Turning to `Nc1nn(CC(=O)NC(Cc2ccccc2)C(=O)O)c2nc(-c3ccccc3)cc(C(F)(F)F)c12` (stereo not given), the IC50 in the test on A549 (setting [1]) was 30.1 µM; with DU-145 (setting [2]), 32.3 µM; with MCF7 (setting [3]), 42.1 µM; with HeLa (setting [4]), 31.3 µM.

As to `NCCNC(=O)Cn1nc(N)c2c(C(F)(F)F)cc(-c3ccccc3)nc21`, the IC50 in the test with A549 (setting [1]) is 50.2 µM; with DU-145 (setting [2]) it was 38.9 µM; in the test on MCF7 (setting [3]) it was 42.9 µM; in the test with HeLa (setting [4]) it was 44.5 µM.

As for `Nc1nn(CC(=O)NCCO)c2nc(-c3ccccc3)cc(C(F)(F)F)c12`, the IC50 in the test with A549 (setting [1]) worked out at 128 µM; in the test on DU-145 (setting [2]), 96.3 µM; in the test with MCF7 (setting [3]), 78.2 µM; with HeLa (setting [4]), 69.5 µM.

With `CCCNC(=O)Cn1nc(N)c2c(C(F)(F)F)cc(-c3ccccc3)nc21`, the IC50 turned out to be 16.5 µM in the test on A549 (setting [1]), 15.5 µM in the test on DU-145 (setting [2]), 14.9 µM with MCF7 (setting [3]) and 15.9 µM in the test on HeLa (setting [4]).

For `O=c1[nH]cc(F)c(=O)[nH]1` [FLUOROURACIL], the IC50 in the test with A549 (setting [1]) was found to be 1.1 µM; with DU-145 (setting [2]), 1.3 µM; in the test on MCF7 (setting [3]) it was 1.2 µM; in the test on HeLa (setting [4]), 1.1 µM.

For `Nc1nn(CC(=O)NCC(=O)O)c2nc(-c3ccccc3)cc(C(F)(F)F)c12`, the IC50 with A549 (setting [1]) is 19.9 µM; with DU-145 (setting [2]), 18.8 µM; in the test with MCF7 (setting [3]), 21.2 µM; in the test on HeLa (setting [4]), 19.1 µM.

For `CNC(=O)Cn1nc(N)c2c(C(F)(F)F)cc(-c3ccccc3)nc21`, the IC50 in the test on A549 (setting [1]) was 15.3 µM; in the test with DU-145 (setting [2]), 14.4 µM; in the test with MCF7 (setting [3]) it was 11.8 µM; with HeLa (setting [4]), 12.2 µM.

`Nc1nn(CC(=O)NC2CC2)c2nc(-c3ccccc3)cc(C(F)(F)F)c12`: the IC50 entry in the test on A549 (a549), with DU-145 (du-145), in the test on MCF7 (mcf7) and in the test with HeLa (hela) was “Not Active” in each case.

For the compound `Nc1nn(CC(=O)N2CCCCC2)c2nc(-c3ccccc3)cc(C(F)(F)F)c12`, the IC50 was determined as 1.2 µM in the test on A549 (setting [1]), 3.2 µM in the test with DU-145 (setting [2]), 4.1 µM in the test with MCF7 (setting [3]) and 2.9 µM in the test on HeLa (setting [4]).

Regarding `Nc1nn(CC(=O)N2CCOCC2)c2nc(-c3ccccc3)cc(C(F)(F)F)c12`, the IC50 amounted to 5.4 µM in the test on A549 (setting [1]), 5.1 µM with DU-145 (setting [2]), 5.9 µM with MCF7 (setting [3]) and 6.6 µM with HeLa (setting [4]).

As for `Nc1nn(CC(=O)NC2CCCCC2)c2nc(-c3ccccc3)cc(C(F)(F)F)c12`, the IC50 is 2.3 µM with A549 (setting [1]), 3.1 µM in the test on DU-145 (setting [2]), 5.2 µM in the test on MCF7 (setting [3]) and 3.9 µM in the test on HeLa (setting [4]).

Consider `Nc1nn(CC(=O)NCc2ccco2)c2nc(-c3ccccc3)cc(C(F)(F)F)c12`, for which the IC50 is 7.7 µM with A549 (setting [1]), 5.6 µM with DU-145 (setting [2]), 5 µM with MCF7 (setting [3]) and 7.1 µM in the test with HeLa (setting [4]).

As for `CCNC(=O)Cn1nc(N)c2c(C(F)(F)F)cc(-c3ccccc3)nc21`, the IC50 was 18.8 µM in the test with A549 (setting [1]), 17.9 µM in the test on DU-145 (setting [2]), 21.3 µM with MCF7 (setting [3]) and 20.2 µM in the test on HeLa (setting [4]).
